Assay results from paper PMC2134300 (The Journal of Cell Biology, 1997).
Residues, ends and D or L forms follow the SMILES beside them. *: point of attachment. Cbz = O=C(OCc1ccccc1)*; CH2Cl = ClC*; CH2F = FC*

These molecules were tested against T1, T. cruzi oligopeptidase B (rPEP, recombinant 120-kD peptidase) (Trypanosoma cruzi, UniProt Q94795) (assay: fluorimetric inhibition of Z-Phe-Arg-AMC hydrolysis).
T1 sequence (Q94795 1-714): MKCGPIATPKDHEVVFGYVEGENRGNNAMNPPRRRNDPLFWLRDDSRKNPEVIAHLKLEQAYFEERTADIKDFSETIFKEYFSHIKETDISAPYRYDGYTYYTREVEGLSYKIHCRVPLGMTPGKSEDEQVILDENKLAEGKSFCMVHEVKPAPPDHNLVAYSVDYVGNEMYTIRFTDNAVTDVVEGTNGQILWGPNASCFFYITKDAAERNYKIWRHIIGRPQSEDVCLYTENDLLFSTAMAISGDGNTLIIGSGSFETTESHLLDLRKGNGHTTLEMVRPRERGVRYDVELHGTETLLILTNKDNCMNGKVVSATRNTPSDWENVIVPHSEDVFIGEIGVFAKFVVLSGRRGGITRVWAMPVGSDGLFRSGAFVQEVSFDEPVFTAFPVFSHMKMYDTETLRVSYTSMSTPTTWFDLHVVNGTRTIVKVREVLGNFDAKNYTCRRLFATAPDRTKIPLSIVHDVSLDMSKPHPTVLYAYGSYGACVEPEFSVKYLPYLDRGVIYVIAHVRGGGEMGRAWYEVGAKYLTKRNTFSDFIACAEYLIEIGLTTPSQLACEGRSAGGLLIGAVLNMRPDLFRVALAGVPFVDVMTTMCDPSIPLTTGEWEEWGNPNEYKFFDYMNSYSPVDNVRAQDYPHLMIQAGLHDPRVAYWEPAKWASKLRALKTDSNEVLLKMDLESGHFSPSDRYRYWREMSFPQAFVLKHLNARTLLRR
Type: biochemical

Row | SMILES | IC50 [µM]
1 | Cc1ccc(S(=O)(=O)N[C@@H](CCCCN)C(=O)CCl)cc1 [N-α-p-tosyl-l-lysine-chloromethyl ketone] | 0.6
2 | N=C(N)NCCC[C@H](NC(=O)[C@H](Cc1ccccc1)NC(=O)OCc1ccccc1)C(=O)CF [Z-Phe-Arg-fluoromethylketone] (Cbz-Phe-Arg-CH2F) | 0.25
3 | CC(=O)N[C@@H](CCCNC(=N)N)C(=O)N[C@@H](CCCNC(=N)N)C(=O)CCl [acetylArg-Arg-chloromethylketone] (Ac-Arg-Arg-CH2Cl) | 0.2
4 | O=C(O)c1cc[c]([Hg][Cl])cc1 [p-chloromercuribenzoic acid] | 0.33
